In patent EP0375414B1, “Substituted guanidine and amidine compounds, their production and fungicidal use” (DowElanco, priority 1988, dated 1990):

Experiments:
[1] = system: Erysiphe graminis Hordei; experiment: In vivo screen, Erysiphe graminis Hordei on barley; set-up: species or system Barley cv. Golden Promise; conditions: 400 ppm sprayed to run off, inoculated 24 hours later, barley at 1 leaf stage, scored after 7 days, percent control vs acetone-water control plants
Method: Barley cv. Golden Promise is used as the host plant. Seeds are sown 8 per 3 in. […] After a week symptoms are recorded. […] The percent control is then recorded.

[2] = system: Host Plants; experiment: Phytotoxicity to host plants in the in vivo screen; conditions: 400 ppm sprayed to run off, host plants of the in vivo screen
Method: For each compound 3 replicate plants per pathogen at the 1 leaf stage are sprayed to run off. The plants are allowed to dry at room temperature for 24 hours prior to inoculation.
Untreated control plants and plants sprayed with 10 percent acetone-water or water alone (as required) are included for each pathogen.
Barley cv. Golden Promise is used as the host plant. Seeds are sown 8 per 3 in. (7.5 cm) pot and allowed to germinate and the plants are treated when they are approximately 2 weeks old. Spores are blown onto the test plants from the stock plants, which are then incubated at 20°C, relative humidity 70 percent for 7 days. After a week symptoms are recorded. The percent infection is scored from 3 replicate plants and expressed as a percent of the infection on the acetone-water control plants. The percent control is then recorded.
Wheat cv. Tonic is used as the host plant. Seeds are sown 1 cm deep in 4 rows per plastic tray. The tray is 60 cm x 30 cm. Seedlings grown to the 1-2 leaf stage are then inoculated. Into 100 mL of distilled water is placed 0.05 g of uredospores with a melting agent. This solution is sprayed onto the seedlings leaving a fine coverage on the leaves. The plants are then incubated with 100 percent relative humidity at 15-20°C for 4 days.

[3] = system: Puccinia recondita; experiment: In vivo screen, Puccinia recondita on wheat; set-up: species or system Wheat cv. Tonic; conditions: 400 ppm sprayed to run off, inoculated 24 hours later, wheat seedlings, incubated 4 days, percent control vs acetone-water control plants
Method: Wheat cv. Tonic is used as the host plant. […] The tray is 60 cm x 30 cm.
Percent control is then recorded.

Structure (SMILES) | Percent Efficacy, Erysiphe graminis [1] [%] | Percent Phytotoxicity to Host Plants [2] [%] | Percent Efficacy, Puccinia recondita [3] [%]
CC(=O)O.C[C@H]1[C@@H](c2ccc(C(C)(C)C)cc2)CCN1C1=NCCCN1 (relative stereo) [Example 1, Cis N-(tetrahydropyrimidin-2-yl)-2-methyl-3-(4-t-butylphenyl)pyrrolidinium acetate] | 100 | 0 | 0
CC(=O)O.C[C@H]1[C@H](c2ccc(C(C)(C)C)cc2)CCN1C1=NCCCN1 (relative stereo) [Example 2, trans N-(tetrahydropyrimidin-2-yl)-2-methyl-3-(4-t-butylphenyl)pyrrolidine acetate] | 83 | 0 | 0
C[C@H]1[C@@H](c2ccc(C(C)(C)C)cc2)CCN1C1=NCCCN1.Cl (relative stereo) [Example 3, Cis N-(tetrahydropyrimidin-2-yl)-2-methyl-3--(4-t-butylphenyl)pyrrolidinium chloride] | 14 |  | 100
C[C@H]1[C@H](c2ccc(C(C)(C)C)cc2)CCN1C1=NCCCN1.Cl (relative stereo) [Example 4, Trans N-(tetrahydropyrimidin-2-yl)-2-methyl,3-(4-t-butylphenyl)pyrrolidinium chloride] | 87 |  | 66
CC1CC(C)NC(N2CC[C@H](c3ccc(C(C)(C)C)cc3)[C@@H]2C)=N1.Cl (relative stereo) [Example 5, Cis N-(4,6-dimethyltetrahydropyrimidin-2-yl)-2-methyl-3-(4-t-butylphenyl)pyrrolidinium chloride] | 52 | 0 | 100
CC1CC(C)NC(N2CC[C@@H](c3ccc(C(C)(C)C)cc3)[C@@H]2C)=N1.Cl (relative stereo) [Example 6, Trans N-(4,6-dimethyltetrahydropyrimidin-2-yl)-2-methyl-3-(4-t-butylphenyl)pyrrolidinium chloride] | 100 | 0 | 0
CCCCCCCC[C@H]1CCN(C2=NCCCN2)[C@H]1C.Cl (relative stereo) [Example 7, Cis N-(tetrahydropyrimidin-2-yl)-2-methyl-3-octyl pyrrolidinium chloride] | 79 |  | 0
